The results in this text go back to patent publication US7053160B1, “Metallocene monohalogenides” (Basell Polyolefine GmbH, priority 1998, dated 2006).

The nature of this data set: Solubility comparison in toluene at room temperature. The data set is classed as physicochemical. The note with it: about 50 mg of solid dissolved.
For the molecule `CC1=Cc2c(ccc3ccccc23)[C]12[Si](C)(C)[C]1(C(C)=Cc3c1ccc1ccccc31)[Zr]2([Cl])[O]c1ccc(C(C)(C)C)cc1C(C)(C)C` (stereo not shown) [compound 1, Dimethylsilanediylbis(2-methyl-4,5-benzoindenyl)zirconium monochloride mono(2,4-di-tert-butylphenoxide)], the solubility is above 13 mM.
To `CC1=Cc2c(ccc3ccccc23)[C]12[Si](C)(C)[C]1(C(C)=Cc3c1ccc1ccccc31)[Zr]2([Cl])[Cl]` (stereo not shown) [dimethylsilanediylbis(2-methyl-4,5-benzoindenyl)zirconium dichloride] belongs “about 0.36 mmol/l”; to `Cc1cc2ccccc2[c-]1[Si](C)(C)[c-]1c(C)cc2ccccc21.[Cl-].[Cl-].[Zr+4]` (stereo not shown) [dimethylsilanediylbis(2-methylindenyl)zirconium dichloride], “about 2.1 mmol/l”; to “Dimethylsilanediylbis(2-methylindenyl)zirconium monochloride mono(2,4-di-tert-butylphenoxide) [compound 2]”, above 15 mM.
